According to patent US20250140406A1, “CLASSIFYING TUMORS AND PREDICTING RESPONSIVENESS” (Oncocyte Corporation, priority 2022, published 2025):
Like-named read-outs stand apart in the source and are kept apart here. Square brackets hold non-standard residues; d marks the D form. Peptide text beside a SMILES is read from it. * marks the point of attachment. dPhe(4-NHCONH2) = NC(=O)Nc1ccc(C[C@@H](N)C(=O)O)cc1; Dihydroorotyl(S) = O=C1C[C@@H](C(=O)*)NC(=O)N1; dPhe(4-Cl) = N[C@H](Cc1ccc(Cl)cc1)C(=O)O; Phe(4-NH2) = Nc1ccc(C[C@H](N)C(=O)O)cc1; d2Nal = N[C@H](Cc1ccc2ccccc2c1)C(=O)O; Lys(iPr) = CC(C)NCCCC[C@H](N)C(=O)O; d3Pal = N[C@H](Cc1cccnc1)C(=O)O

What was measured:
[1] = tested on: cancer cell lines classified IM, MSL, M; experiment: PRISM screen compound sensitivity correlated with IM, MSL and M subtype of cell lines (101 gene signature); type: cell-based; conditions: for TNBCType test: test data set
[2] = tested on: cancer cell lines, DetermaIO classes; experiment: Association of PRISM compound sensitivity with DetermaIO (DTIO) cell line classes; type: cell-based
[3] = correlation of PRISM compound sensitivity with IM subtype correlation, test cell set
[4] = correlation of PRISM compound sensitivity with M subtype correlation, test cell set
[5] = correlation of PRISM compound sensitivity with MSL subtype correlation, test cell set
[6] = correlation of PRISM compound sensitivity with DTIO, test cell set
[7] = correlation of PRISM compound sensitivity with DTIO, training cell set
[8] = classification of association of compound sensitivity with IM, MSL and M cell line classes
[9] = classification of association of compound sensitivity with IM, MSL and M cell line classes, training data set
[10] = association of compound sensitivity with DetermaIO classes, test data set
[11] = association of compound sensitivity with DetermaIO classes, training data set
[12] = correlation of PRISM compound sensitivity with IM subtype correlation, test cell set (188 cell lines)
[13] = correlation of PRISM compound sensitivity with M subtype correlation, test cell set (188 cell lines)
[14] = correlation of PRISM compound sensitivity with MSL subtype correlation, test cell set (188 cell lines)
[15] = subtype (IM, MSL or M) with which compound sensitivity is negatively correlated, training cell set (371 cell lines), 101 gene signature
[16] = correlation of compound sensitivity with DetermaIO (DTIO), test set
[17] = correlation of compound sensitivity with DetermaIO (DTIO), training set
[18] = subtype (IM, MSL or M) assigned to the compound by negative correlation of PRISM sensitivity with subtype, training cell set (371 cell lines), 101 gene signature
[19] = correlation of PRISM compound sensitivity with DTIO (DetermaIO), test cell set (188 cell lines)
[20] = correlation of PRISM compound sensitivity with DTIO (DetermaIO), training cell set (371 cell lines)

Molecule	DTIO Corr test [2, 6]	DTIO Corr train [2, 7]	IM Corr test [1, 12]	M Corr test [1, 13]	MSL Corr test [1, 14]	TNBCType train [1, 15]	other results
COc1cc2ncnc(Nc3cccc(Br)c3)c2cc1OC [PD-153035]	−0.03709	−0.1232	–	–	–	–	IM Corr test [1, 3]: −0.1533; M Corr test [1, 4]: 0.2905; MSL Corr test [1, 5]: 0.3911; DTIO Corr test ([2]; correlation of compound sensitivity with DTIO, test set): −0.03709; DTIO Corr train ([2]; correlation of compound sensitivity with DTIO, training set): −0.1232
COc1cc(Nc2ncc(F)c(Nc3ccc4c(n3)NC(=O)C(C)(C)O4)n2)cc(OC)c1OC [K20285085]	–	–	–	–	–	–	TNBCType test [1, 8]: MSL; TNBCType train [1, 9]: MSL; DTIO Corr test [2, 10]: −0.04153; DTIO Corr train [2, 11]: −0.1076
CC(=O)N[C@H](Cc1ccc2ccccc2c1)C(=O)N[C@H](Cc1ccc(Cl)cc1)C(=O)N[C@H](Cc1cccnc1)C(=O)N[C@@H](CO)C(=O)N[C@@H](Cc1ccc(NC(=O)[C@@H]2CC(=O)NC(=O)N2)cc1)C(=O)N[C@H](Cc1ccc(NC(N)=O)cc1)C(=O)N[C@@H](CC(C)C)C(=O)N[C@@H](CCCCNC(C)C)C(=O)N1CCC[C@H]1C(=O)N[C@H](C)C(N)=O [degarelix] (Ac-[d2Nal][dPhe(4-Cl)][d3Pal]S[Phe(4-NH2)](Dihydroorotyl(S))[dPhe(4-NHCONH2)]L[Lys(iPr)]P[dA]-NH2)	−0.01776	0.01996	0.000275	−0.03554	−0.05421	MSL	–
C/C(=C\C(=O)Nc1ccccc1C(=O)O)c1ccc2ccccc2c1 [BIBR-1532]	−0.226	−0.05255	−0.1712	0.141	−0.1482	MSL	–
Cc1nc(C)c(-c2ccc(C3CCC(CC(=O)O)CC3)cc2)nc1C(N)=O (centres unmarked) [AZD7687]	−0.03167	−0.02143	–	–	–	–	IM Corr test [1, 3]: −0.05809; M Corr test [1, 4]: 0.08898; MSL Corr test [1, 5]: 0.08286
O=C(Nc1cccc(Nc2ncc(Br)c(NCCc3cnc[nH]3)n2)c1)N1CCCC1 [BX-912]	0.03523	0.04083	–	–	–	–	IM Corr test [1, 3]: 0.1542; M Corr test [1, 4]: −0.2367; MSL Corr test [1, 5]: −0.03732
Cc1cccc(-c2[nH]c(C(C)(C)C)nc2-c2ccc3c(c2)OCO3)n1 [SB-505124]	0.1683	0.2562	–	–	–	–	IM Corr test [1, 3]: 0.2475; M Corr test [1, 4]: −0.1987; MSL Corr test [1, 5]: −0.01627; DTIO Corr test [2, 16]: 0.1683; DTIO Corr train [2, 17]: 0.2562
Cc1nn(C)c2c1C(c1cccc(Cl)c1)=NCCN2 [zometapine]	−0.08271	0.09146	−0.1347	0.04602	−0.04215	MSL	–
NC(=O)c1cccc(-c2cc(Nc3ccc(OC(F)(F)F)cc3)ncn2)c1 [GNF-2]	–	–	−0.03304	−0.07177	−0.05938	–	DTIO Corr test ([2]; correlation of PRISM compound sensitivity with DTIO, test cell set (188 cell lines)): −0.02831; DTIO Corr train ([2]; correlation of PRISM compound sensitivity with DTIO, training cell set (371 cell lines)): −0.02935
O=C(O)CCCN1C(=O)c2cccc3cccc(c23)C1=O [isodibut]	–	–	−0.04572	−0.03436	−0.1039	–	TNBCType train [1, 18]: MSL; DTIO Corr test [2, 19]: −0.0652; DTIO Corr train [2, 20]: 0.05075
repsox	–	–	–	–	–	–	IM Corr test [1]: −0.07924; M Corr test [1]: 0.1062; MSL Corr test [1]: 0.08697; DTIO Corr test [2]: −0.03254; DTIO Corr train [2]: −0.05665
CN(N=O)C(=O)N[C@H]1C(O)O[C@H](CO)[C@@H](O)[C@@H]1O (mixture of isomers) [streptozotocin]	−0.06131	0.03601	–	–	–	–	IM Corr test [1, 3]: −0.07058; M Corr test [1, 4]: 0.07616; MSL Corr test [1, 5]: −0.07788; TNBCType train ([1]; subtype (IM, MSL or M) with which PRISM compound sensitivity is negatively correlated, training cell set, 101 gene signature): MSL
C[C@H](Nc1ncnc2[nH]cnc12)c1cc2ccc(F)cc2nc1-c1ccccn1 [AMG319]	0.03283	−0.03859	0.07986	−0.1713	−0.08814	MSL	–
C[C@]12CC[C@H]3[C@@H](CC[C@]4(O)C[C@@H](O)CC[C@]34C=O)[C@@]1(O)CC[C@@H]2C1=CC(=O)OC1 [k-strophanthidin]	−0.03307	−0.01124	−0.06974	−0.03165	−0.1099	MSL	–
COc1ccc(C2CNC(=O)NC2)cc1O[C@H]1C[C@@H]2CC[C@H]1C2 [atizoram]	–	–	−0.0276	0.01206	−0.09365	–	TNBCType train [1, 18]: MSL; DTIO Corr test [2, 19]: 0.000749; DTIO Corr train [2, 20]: −0.04268
N#CSc1cc(SC#N)c(N)nc1N [PR-619]	0.05674	0.0993	–	–	–	–	IM Corr test [1, 3]: 0.1495; M Corr test [1, 4]: −0.2203; MSL Corr test [1, 5]: −0.1223; DTIO Corr test [2, 16]: 0.05674; DTIO Corr train [2, 17]: 0.0993
C[N+](C)(C)CC#CCN1CCCC1=O [oxotremorine-m]	−0.1128	−0.0669	−0.08895	0.05992	0.09728	–	–
CC[C@H](C)C(=O)O[C@H]1CCC=C2C=C[C@H](C)[C@H](CC[C@@H]3C[C@@H](O)CC(=O)O3)[C@H]21 [K94441233]	–	–	–	–	–	–	TNBCType test [1, 8]: MSL; TNBCType train [1, 9]: MSL; DTIO Corr test [2, 10]: −0.09323; DTIO Corr train [2, 11]: −0.00119
Cc1cc(-c2cc(O)ccc2Cl)cc2nnc(Nc3ccc(OCCN4CCCC4)cc3)nc12 [TG-100572]	0.03221	0.09048	0.01392	−0.05751	−0.04088	MSL	–
O=C(O)c1ccc(N2C(=O)/C(=C\c3ccc(-c4ccc([N+](=O)[O-])cc4)o3)C=C2c2ccccc2)cc1 [4E1RCat]	–	–	0.05564	−0.08971	0.01051	–	DTIO Corr test [2, 19]: 0.01627; DTIO Corr train [2, 20]: 0.1551
CCCN(CCC)CCc1ccc(OC)c(OCCc2ccccc2)c1 [NE-100]	0.02588	0.0932	0.02328	−0.05032	−0.07257	MSL	–
CC(O)CN1CCN(CC(=O)[O-])CCN(CC(=O)[O-])CCN(CC(=O)[O-])CC1.[Gd+3] (centres unmarked) [gadoteridol]	−0.08228	−0.04116	−0.02624	−0.02135	−0.00929	MSL	–
CCCCC1OC(=O)c2ccccc21 (centres unmarked) [butylphthalide]	−0.1082	0.01178	−0.03693	−0.03289	−0.02003	MSL	–
